Active and inactive are the calls of the source.
Legend:
[1] = molecular target: Peroxisome proliferator-activated receptor gamma/Nuclear receptor corepressor 2 (Homo sapiens, UniProt P37231+Q9Y618); assay: Counterscreen for NR2E3 inverse agonists: TR-FRET-based biochemical high throughput dose response assay to identify inverse agonists of the interaction between peroxisome proliferator-activated receptor gamma (PPARg) and nuclear receptor co-repressor 2 (NCOR2).; format: functional
[2] = molecular target: Photoreceptor-specific nuclear receptor (Homo sapiens, UniProt Q9Y5X4); assay: ligands suppressing NR2E3 nuclear receptor activity – biochemical, TR-FRET, dose response (AID 463256); format: functional
Photoreceptor-specific nuclear receptor, sequence (Q9Y5X4 whole entry): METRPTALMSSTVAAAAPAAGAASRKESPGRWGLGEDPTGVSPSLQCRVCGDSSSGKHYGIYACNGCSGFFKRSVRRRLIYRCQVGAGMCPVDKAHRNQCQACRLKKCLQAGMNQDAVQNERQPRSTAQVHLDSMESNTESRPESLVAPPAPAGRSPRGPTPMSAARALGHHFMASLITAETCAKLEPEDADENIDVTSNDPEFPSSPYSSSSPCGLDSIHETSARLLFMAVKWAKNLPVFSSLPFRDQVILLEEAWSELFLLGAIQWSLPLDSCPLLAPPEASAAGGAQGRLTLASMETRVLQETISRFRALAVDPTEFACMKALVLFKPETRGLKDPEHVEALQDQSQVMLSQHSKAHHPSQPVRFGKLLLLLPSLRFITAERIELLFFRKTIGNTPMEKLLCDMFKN

[3] = molecular target: Tyrosyl-DNA phosphodiesterase 2 (Homo sapiens, UniProt O95551); assay: potency against TDP2 phosphodiesterase activity – biochemical, epi absorbance, IC50, dose response (AID 743297)
Tyrosyl-DNA phosphodiesterase 2, sequence (O95551 whole entry): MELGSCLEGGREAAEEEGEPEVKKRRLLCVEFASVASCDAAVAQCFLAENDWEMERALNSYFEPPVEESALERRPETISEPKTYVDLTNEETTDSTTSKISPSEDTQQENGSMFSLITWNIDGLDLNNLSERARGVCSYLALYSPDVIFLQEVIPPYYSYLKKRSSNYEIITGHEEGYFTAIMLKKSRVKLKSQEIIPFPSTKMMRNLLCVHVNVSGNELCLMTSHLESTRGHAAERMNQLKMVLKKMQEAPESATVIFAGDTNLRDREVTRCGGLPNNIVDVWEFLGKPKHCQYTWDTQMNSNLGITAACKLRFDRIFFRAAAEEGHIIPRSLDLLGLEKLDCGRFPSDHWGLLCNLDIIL

[4] = system: Streptococcus sp. 'group A'; assay: Streptococcus pyogenes SK(-)GAS viability under kanamycin – luminescence, BacTiterGlo, confirmation, counter-screen for streptokinase expression inhibitor project, dose response (AID 1900); format: functional, organism-based
[5] = molecular target: Voltage-gated inwardly rectifying potassium channel KCNH2 (Homo sapiens, UniProt Q12809); assay: concentration-dependent hERG rescue from blockers – cell-based, thallium flux, dose response (AID 2121); format: ADME
Voltage-gated inwardly rectifying potassium channel KCNH2, sequence (Q12809 whole entry): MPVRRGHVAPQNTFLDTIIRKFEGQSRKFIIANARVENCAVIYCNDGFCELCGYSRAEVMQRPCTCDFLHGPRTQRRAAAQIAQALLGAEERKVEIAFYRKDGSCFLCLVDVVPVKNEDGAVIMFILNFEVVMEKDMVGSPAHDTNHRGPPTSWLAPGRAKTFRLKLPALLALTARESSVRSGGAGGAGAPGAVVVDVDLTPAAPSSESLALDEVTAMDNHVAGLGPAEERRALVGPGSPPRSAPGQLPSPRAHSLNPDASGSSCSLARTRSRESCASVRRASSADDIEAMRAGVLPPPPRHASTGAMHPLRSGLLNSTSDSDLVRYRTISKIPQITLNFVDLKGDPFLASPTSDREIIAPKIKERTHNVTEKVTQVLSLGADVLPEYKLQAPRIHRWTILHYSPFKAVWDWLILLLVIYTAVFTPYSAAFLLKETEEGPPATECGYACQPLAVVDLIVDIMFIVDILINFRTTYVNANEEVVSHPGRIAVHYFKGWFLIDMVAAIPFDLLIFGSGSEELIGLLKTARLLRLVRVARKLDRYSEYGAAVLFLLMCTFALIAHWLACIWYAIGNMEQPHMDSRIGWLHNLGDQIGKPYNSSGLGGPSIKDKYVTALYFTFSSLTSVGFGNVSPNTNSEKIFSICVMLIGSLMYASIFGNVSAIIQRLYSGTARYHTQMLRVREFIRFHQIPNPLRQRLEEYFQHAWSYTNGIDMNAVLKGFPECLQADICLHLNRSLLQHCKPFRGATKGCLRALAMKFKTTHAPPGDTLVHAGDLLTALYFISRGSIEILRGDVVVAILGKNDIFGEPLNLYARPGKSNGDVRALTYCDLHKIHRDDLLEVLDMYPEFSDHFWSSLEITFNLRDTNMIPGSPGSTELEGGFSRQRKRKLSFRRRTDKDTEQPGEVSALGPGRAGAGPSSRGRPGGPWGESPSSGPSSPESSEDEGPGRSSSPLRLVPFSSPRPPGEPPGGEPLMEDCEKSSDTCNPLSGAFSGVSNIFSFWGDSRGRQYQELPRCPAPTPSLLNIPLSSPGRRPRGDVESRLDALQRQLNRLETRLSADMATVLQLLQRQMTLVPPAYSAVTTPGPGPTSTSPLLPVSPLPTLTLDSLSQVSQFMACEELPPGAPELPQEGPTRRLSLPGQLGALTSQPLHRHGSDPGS

Streptococcus = assay: GAS UMAA2166 growth inhibition – luminescence, BacTiterGlo, counter-screen for streptokinase expression inhibitor project, dose response (AID 1915); format: functional, organism-based;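 note: potency for reduction of bacterial viability or growth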
[6] = Late stage counterscreen results from the probe development effort to identify activators of signal transducer and activator of transcription 1 (STAT1): luminescence-based cell-based dose response assay to identify cytotoxic compounds.; format: functional
Galanin receptor type 2 = Galanin receptor type 2 (Homo sapiens, UniProt O43603); assay: Dose Response cell-based high-throughput screening assay to identify antagonists of galanin receptor 2 (GALR2). [Related pubchem assays: 828, 866 ]; format: functional
Galanin receptor type 2, sequence (O43603 whole entry): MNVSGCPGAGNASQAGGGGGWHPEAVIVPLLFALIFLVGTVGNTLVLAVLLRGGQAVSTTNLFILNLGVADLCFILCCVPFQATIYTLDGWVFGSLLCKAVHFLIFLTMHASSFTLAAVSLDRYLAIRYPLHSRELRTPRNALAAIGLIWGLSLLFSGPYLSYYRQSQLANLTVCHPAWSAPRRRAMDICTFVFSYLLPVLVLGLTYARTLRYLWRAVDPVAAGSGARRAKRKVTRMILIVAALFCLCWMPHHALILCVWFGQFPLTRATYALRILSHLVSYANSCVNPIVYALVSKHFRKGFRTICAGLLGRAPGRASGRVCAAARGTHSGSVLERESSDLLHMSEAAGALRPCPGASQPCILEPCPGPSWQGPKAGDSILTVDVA

[7] = M. tuberculosis growth inhibition, HTS (AID 449762); format: functional
Procathepsin L = Procathepsin L (Homo sapiens, UniProt P07711); assay: CTSL1 protease inhibition – biochemical, QFRET, 1536-well, counter-screen for M1/M17 aminopeptidase inhibitor project, dose response (AID 2214)
Procathepsin L, sequence (P07711 whole entry): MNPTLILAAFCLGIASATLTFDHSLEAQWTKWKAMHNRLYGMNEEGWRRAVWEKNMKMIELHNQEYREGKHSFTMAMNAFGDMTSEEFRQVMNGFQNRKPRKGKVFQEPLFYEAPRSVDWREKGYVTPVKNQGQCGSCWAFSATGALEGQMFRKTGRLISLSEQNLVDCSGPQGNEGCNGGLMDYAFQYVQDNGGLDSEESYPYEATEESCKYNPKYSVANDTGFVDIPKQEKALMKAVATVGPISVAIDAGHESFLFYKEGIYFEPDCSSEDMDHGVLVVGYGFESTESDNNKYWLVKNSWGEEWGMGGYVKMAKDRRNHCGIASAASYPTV

Leucine aminopeptidase = molecular target: T1, Leucine aminopeptidase (Plasmodium falciparum 3D7, UniProt Q8IL11); assay: P. falciparum M17LAP inhibitors, primary screen, biochemical, fluorogenic H-Leu-NHMec substrate, 1536-well (AID 1619); format: functional
T1 sequence (Q8IL11 whole entry): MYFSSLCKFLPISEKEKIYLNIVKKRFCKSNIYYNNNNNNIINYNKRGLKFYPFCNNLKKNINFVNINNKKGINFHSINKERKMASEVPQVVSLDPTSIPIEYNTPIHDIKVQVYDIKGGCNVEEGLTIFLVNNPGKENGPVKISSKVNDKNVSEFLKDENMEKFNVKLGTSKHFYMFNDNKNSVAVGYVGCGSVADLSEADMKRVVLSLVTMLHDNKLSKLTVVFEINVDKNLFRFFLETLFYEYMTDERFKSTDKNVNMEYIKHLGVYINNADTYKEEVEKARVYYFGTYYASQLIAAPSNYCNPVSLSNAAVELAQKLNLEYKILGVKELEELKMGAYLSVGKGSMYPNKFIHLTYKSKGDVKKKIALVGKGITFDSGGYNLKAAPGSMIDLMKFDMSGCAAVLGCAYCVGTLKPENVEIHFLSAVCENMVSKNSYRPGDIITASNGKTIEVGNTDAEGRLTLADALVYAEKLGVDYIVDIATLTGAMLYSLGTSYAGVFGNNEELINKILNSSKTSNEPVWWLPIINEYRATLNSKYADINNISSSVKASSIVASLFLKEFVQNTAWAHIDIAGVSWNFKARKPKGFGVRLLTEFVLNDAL

Aspartyl aminopeptidase = Aspartyl aminopeptidase (Plasmodium falciparum 3D7, UniProt Q8I2J3); assay: Counterscreen for inhibitors of M1 and M17 aminopeptidases: QFRET-based biochemical high throughput dose response assay for inhibitors of the Plasmodium falciparum M18 Aspartyl Aminopeptidase (PFM18AAP). [Related PubChem assays: 1619 (Screening assay (M17LAP inhibitors).), 1445 (Screening assay (M1AAP inhibitors).)]
Aspartyl aminopeptidase, sequence (Q8I2J3 whole entry): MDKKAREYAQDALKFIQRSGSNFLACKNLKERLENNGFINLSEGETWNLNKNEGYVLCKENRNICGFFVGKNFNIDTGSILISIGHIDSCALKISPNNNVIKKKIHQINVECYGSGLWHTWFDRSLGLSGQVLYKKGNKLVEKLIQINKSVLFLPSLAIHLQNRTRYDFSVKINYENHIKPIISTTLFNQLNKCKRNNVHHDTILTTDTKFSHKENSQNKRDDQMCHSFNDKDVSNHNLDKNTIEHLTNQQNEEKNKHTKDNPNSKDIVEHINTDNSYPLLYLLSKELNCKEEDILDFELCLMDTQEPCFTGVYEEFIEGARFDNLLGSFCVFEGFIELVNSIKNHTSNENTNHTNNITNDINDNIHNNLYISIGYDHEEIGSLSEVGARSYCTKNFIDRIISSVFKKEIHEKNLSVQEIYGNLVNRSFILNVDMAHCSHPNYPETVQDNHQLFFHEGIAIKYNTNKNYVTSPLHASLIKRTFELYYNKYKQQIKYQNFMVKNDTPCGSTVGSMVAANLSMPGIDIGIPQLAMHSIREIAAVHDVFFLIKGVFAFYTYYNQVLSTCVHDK

[8] = molecular target: Sphingosine 1-phosphate receptor 3 (Homo sapiens, UniProt Q99500); assay: Dose response cell-based high throughput screening assay for antagonists of the Sphingosine 1-Phosphate Receptor 3 (S1P3). [Related pubchem assays: 1429, 485 ]; format: functional
Sphingosine 1-phosphate receptor 3, sequence (Q99500 whole entry): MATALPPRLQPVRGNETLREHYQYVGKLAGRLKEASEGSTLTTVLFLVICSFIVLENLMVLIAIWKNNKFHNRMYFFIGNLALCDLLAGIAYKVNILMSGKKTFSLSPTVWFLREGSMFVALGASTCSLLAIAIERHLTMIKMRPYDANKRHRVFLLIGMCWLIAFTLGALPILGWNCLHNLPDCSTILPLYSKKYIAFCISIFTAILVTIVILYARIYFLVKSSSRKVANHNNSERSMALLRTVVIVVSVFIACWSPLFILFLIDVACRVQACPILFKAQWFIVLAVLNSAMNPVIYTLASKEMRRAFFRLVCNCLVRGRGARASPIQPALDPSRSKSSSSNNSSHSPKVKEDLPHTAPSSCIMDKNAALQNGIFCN

[9] = molecular target: Neuropeptide Y receptor type 2 (Homo sapiens, UniProt P49146); assay: IC50 for human NPY-Y2 blockade – cell-based, counter-screen for NPY-Y1 antagonist project, dose response (AID 1278); format: functional
[10] = molecular target: 5-hydroxytryptamine receptor 1E (Homo sapiens, UniProt P28566); assay: Counterscreen assay for S1P3 antagonists: Dose response cell-based high throughput screening assay to identify antagonists of the 5-Hydroxytryptamine Receptor Subtype 1E (5HT1E). [Related pubchem assays: 1429, 485 ]; format: functional
5-hydroxytryptamine receptor 1E, sequence (P28566 whole entry): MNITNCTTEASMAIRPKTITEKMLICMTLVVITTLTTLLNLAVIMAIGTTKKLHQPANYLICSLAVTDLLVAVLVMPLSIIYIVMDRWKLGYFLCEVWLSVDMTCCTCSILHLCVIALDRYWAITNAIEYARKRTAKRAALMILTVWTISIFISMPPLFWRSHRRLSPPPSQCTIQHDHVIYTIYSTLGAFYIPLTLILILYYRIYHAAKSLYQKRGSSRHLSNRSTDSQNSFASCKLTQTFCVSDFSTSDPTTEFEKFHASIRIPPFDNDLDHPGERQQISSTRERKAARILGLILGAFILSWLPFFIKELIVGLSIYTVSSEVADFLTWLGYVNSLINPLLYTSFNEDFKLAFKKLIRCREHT

Bcl-2-related protein A1 [11] = molecular target: T2, Bcl-2-related protein A1 (Mus musculus, UniProt Q07440); assay: small-molecule antagonists of Bfl-1/BH3 interaction – biochemical, TR-FRET, mouse Bfl-1, confirmation (AID 621);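 note: TR-FRET binding of GST-Bfl-1 to FITC-labelled Bid peptide via terbium antibody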
T2 sequence (Q07440 whole entry): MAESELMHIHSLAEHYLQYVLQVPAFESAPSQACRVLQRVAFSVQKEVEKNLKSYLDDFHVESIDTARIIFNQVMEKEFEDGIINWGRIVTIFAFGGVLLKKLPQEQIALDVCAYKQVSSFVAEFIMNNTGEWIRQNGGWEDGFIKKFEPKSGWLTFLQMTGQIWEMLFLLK

Bcl-2-related protein A1 [12] = molecular target: T2, Bcl-2-related protein A1; assay: Bfl-1 binding inhibitors, SAR follow-up, biochemical, fluorescence polarization (AID 1070)
[13] = antiviral protection against BTV-induced cell death – arbovirus, BSR cells, confirmation (AID 1250); format: functional;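 note: protection from viral cytopathic effect measured as cell viability by ATP luminescence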
14-3-3 protein gamma = 14-3-3 protein gamma (Homo sapiens, UniProt P61981); assay: modulators of 14-3-3 gamma client binding – dose response (AID 711); format: functional
14-3-3 protein gamma, sequence (P61981 whole entry): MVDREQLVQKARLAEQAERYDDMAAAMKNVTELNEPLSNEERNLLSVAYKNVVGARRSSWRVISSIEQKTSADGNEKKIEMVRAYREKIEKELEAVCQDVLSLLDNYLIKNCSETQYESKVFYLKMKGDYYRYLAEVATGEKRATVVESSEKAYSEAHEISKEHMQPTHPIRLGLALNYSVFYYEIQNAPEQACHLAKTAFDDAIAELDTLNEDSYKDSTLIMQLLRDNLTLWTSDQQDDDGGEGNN

Troponin, cardiac muscle = Troponin, cardiac muscle (Homo sapiens, UniProt P19429+P45379+P63316); assay: Fluorescence-based biochemical high throughput dose response assay for activators of the calcium sensitivity of cardiac Regulated Thin Filaments (RTF). [Related pubchem assays (depositor defined):AID493008, AID493018, AID504382, AID504383]; format: protein-complex assay
Oxytocin receptor = Oxytocin receptor (Homo sapiens, UniProt P30559); assay: Fluorescence-based cell-based high throughput dose response assay for potentiators of Oxytocin Receptor (OXTR). [Related pubchem assays: 434985 (Confirmation screen (OXTR potentiators in triplicate)), 2481 (Summary (OXTR potentiators)), 2445 (Primary screen (OXTR potentiators in singlicate))]; format: functional
Oxytocin receptor, sequence (P30559 whole entry): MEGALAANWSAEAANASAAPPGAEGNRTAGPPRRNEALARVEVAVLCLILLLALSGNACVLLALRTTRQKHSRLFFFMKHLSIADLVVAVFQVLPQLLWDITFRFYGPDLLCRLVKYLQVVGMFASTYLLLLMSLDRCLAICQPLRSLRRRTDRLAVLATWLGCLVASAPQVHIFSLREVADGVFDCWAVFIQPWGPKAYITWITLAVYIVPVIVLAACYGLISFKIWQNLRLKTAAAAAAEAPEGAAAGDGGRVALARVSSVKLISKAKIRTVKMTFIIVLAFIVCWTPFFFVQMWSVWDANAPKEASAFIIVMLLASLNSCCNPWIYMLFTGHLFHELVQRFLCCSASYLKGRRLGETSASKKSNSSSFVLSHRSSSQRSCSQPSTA

[14] = mitochondrial function rescue without frataxin homolog – Friedreich's ataxia, plus single-dose screen, dose response (AID 1465); format: functional;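 note: yeast depleted of Yfh1p frataxin homolog grown on glycerol needing respiration; WST-1 tetrazolium dye reduction as measure of cellular dehydrogenase metabolic activity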
Nonstructural protein 1 = Nonstructural protein 1 (Influenza A virus, UniProt Q194T2); format: functional, Influenza A virus (A/California/07/2009(H1N1))
Nonstructural protein 1, sequence (Q194T2 whole entry, canonical isoform): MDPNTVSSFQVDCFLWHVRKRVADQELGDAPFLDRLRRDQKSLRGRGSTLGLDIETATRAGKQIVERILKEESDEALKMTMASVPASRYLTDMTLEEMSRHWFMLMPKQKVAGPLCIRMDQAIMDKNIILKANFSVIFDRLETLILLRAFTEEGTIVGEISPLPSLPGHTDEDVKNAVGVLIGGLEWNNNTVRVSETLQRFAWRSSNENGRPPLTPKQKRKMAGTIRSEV

[15] = molecular target: T3, Low molecular weight phosphotyrosine protein phosphatase (Homo sapiens, UniProt P24666); assay: inhibition of human LMPTP enzyme activity – biochemical, absorbance, pNPP substrate, LMPTP-A isoform, set 2, orthogonal assay, dose response (AID 743308); format: functional
T3 sequence (P24666 whole entry): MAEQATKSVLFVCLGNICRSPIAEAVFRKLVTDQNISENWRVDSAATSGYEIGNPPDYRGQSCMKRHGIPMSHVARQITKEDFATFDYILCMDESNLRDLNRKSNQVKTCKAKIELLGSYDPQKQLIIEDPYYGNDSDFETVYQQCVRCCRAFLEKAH

[16] = molecular target: T3, Low molecular weight phosphotyrosine protein phosphatase; assay: inhibition of LMPTP-A enzymatic activity – biochemical, OMFP substrate, fluorescence intensity, set 2, dose response (AID 743307); format: functional
[17] = Reduced DLD-1 viability, concentration-response, CellTiter-Glo luminescence (AID 1117352); format: functional
[18] = RKO cell viability reduction, dose response, CellTiter-Glo luminescence (AID 1117322); format: functional
[19] = viability of PTEN-deleted HCT116 cells – cell-based, HCT116 PTEN knockout, dose response (AID 1047); format: functional;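 note: HCT116 colon tumor cells with PTEN knocked out; cells exposed to compound for 60 hours before readout; potency for loss of cell viability measured by luminescence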
[20] = cytotoxicity toward HT-29 cells – cell-based, CellTiter-Glo luminescence, IC50, dose response (AID 1117330); format: functional
[21] = Potency on glucagon-like peptide 1 release, dose-response in NCI-H716 cell line, half maximal inhibitory concentration (AID 1117344); format: functional, cell-based
[22] = viability of HCT116 lacking mutant beta-catenin – cell-based, human colon tumor, dose response (AID 1045); format: functional;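 note: HCT116 colon tumor cells with beta catenin knocked out; cells exposed to compound for 60 hours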
[23] = molecular target: Heat shock protein HSP 90-alpha (Homo sapiens, UniProt P07900); format: functional, organism-based
[24] = cytotoxicity toward HCT116 cells – cell-based, CellTiter-Glo luminescence, IC50, dose response (AID 1117332); format: functional; conditions: HCT-116
[25] = cytotoxicity toward Colo320 cells – cell-based, CellTiter-Glo luminescence, IC50, dose response (AID 1117334); format: functional; conditions: COLO 320
[26] = CellTiter-Glo luminescence survival assay, SW480 colon tumor line, concentration-response curve, half-maximal inhibitory concentration (AID 1117338); format: functional
[27] = glucagon-like peptide-1 release potency in STC-1, concentration-response, half-maximal inhibitory concentration in the STC-1 line (AID 1117345); format: functional, cell-based
[28] = SNU-C1 cell viability reduction, dose response, CellTiter-Glo luminescence (AID 1117323); format: functional, cell-based

In the case of `COc1ccc(NC(=O)CSc2nnc(-c3cccs3)n2-c2ccccc2)cc1`, the IC50 [1] is reported as 2.16 µM (active) and the IC50 [2] is reported as 2.09 µM (active).

For `CCOC(=O)C1=C(Cc2ccc(C)cc2)C(=O)c2ccccc2C1=O`, the IC50 [3] was > 128 µM (inactive), the EC50 [4] was 6.54 µM (active) and the EC50 [5] was 4.1 µM (active). For the same compound, the EC50 (Streptococcus) was 6.91 µM (active).

In the case of `Cc1nnc(SCC(=O)Nc2ccc(-c3nc4ccccc4s3)cc2)s1`, the IC50 [6] is reported as > 55.7 µM (not active).

For `c1ccc2c3nc[nH]c(NCC4CCCO4)c-3nc2c1` (centres undefined), the IC50 (Galanin receptor type 2) was > 42 µM (not active).

For `Cn1nnc(NC(=S)NC(=O)c2ccc(-c3ccc(Br)cc3)o2)n1`, the IC50 [7] was > 100 µM (active).

With `N#Cc1c(NC(=O)C2CC=CCC2C(=O)O)sc2c1CCCCCC2` (centres undefined) the IC50 (Procathepsin L) was > 59.6 µM (not active), the IC50 (Leucine aminopeptidase) was < 1 µM (active) and the IC50 (Aspartyl aminopeptidase) was > 73.5 µM (not active).

For `Cc1cc(C(=O)CSc2nc3ccccc3c(=O)n2C)c(C)n1CC1CCCO1` (centres undefined), the IC50 [8] was > 50 µM (not active), the IC50 [9] was > 35 µM (not active) and the IC50 [10] was > 50 µM (not active).

With `Clc1ccc(-n2nnc(-c3cccnc3Cl)n2)cn1` the IC50 (Bcl-2-related protein A1 [11]) was > 100 µM (not active) and the IC50 (Bcl-2-related protein A1 [12]) was > 100 µM (not active).

For `CCOc1ccc(-n2c(SCC(=O)Nc3cc(OC)c([N+](=O)[O-])cc3C)nc3ccccc32)cc1`, the IC50 [13] was 43 µM (active).

For `COc1ncnc2c1N=C1CC(C)(C)CC(N)=C1S2`, the IC50 (14-3-3 protein gamma) was 30 µM (active) and the EC50 (Troponin, cardiac muscle) was > 7.94 µM (active).

With `CCOc1ccc(-c2c(C(=O)N/N=C/c3ccc(Cl)cc3)nnn2-c2nonc2N)cc1` the EC50 (Oxytocin receptor) was > 29.9 µM (not active).

In the case of `COc1cc([N+](=O)[O-])cc(/C=N/NC(=O)c2ccc(C)nc2)c1O`, the EC50 [4] is reported as 2.62 µM (active), the EC50 [14] is reported as > 100 µM (active) and the IC50 (Nonstructural protein 1) is reported as 5.49 µM (active). The EC50 (Streptococcus) was 2.22 µM (active).

For `c1ccc(-c2cc(SCCCN3CCCCC3)c3ccccc3n2)cc1`, the IC50 [15] was > 80 µM (inactive) and the IC50 [16] was 66.9 µM (inactive).

In the case of `Oc1ccc(Cl)cc1Cc1cc(Cl)ccc1O` [DICHLOROPHEN], the IC50 [17] is reported as 0.862 µM (active), the IC50 [18] is reported as 1.93 µM (active) and the EC50 [19] is reported as 15.7 µM (active). For the same compound, the IC50 [20] was 4.69 µM (active), the IC50 [21] was 15.6 µM (inactive) and the EC50 [22] was 16.4 µM (active). The AC50 [23] was 8 µM (active), the IC50 [24] was 1.55 µM (active) and the IC50 [25] was 1.21 µM (active). For the same compound, the IC50 [26] was 2.5 µM (active), the IC50 [27] was > 40 µM (inactive) and the IC50 [28] was 0.546 µM (active).
